Columns and labels:
[1] = tested on: non-opiate medication-related constipation; assay: Case Example 2: cetilistat for constipation related to amitriptyline (non-opiate medication); type: in vivo, human
Description: A person with fibromyalgia being treated with the tricyclic antidepressant, amitriptyline, suffered from a global pain disorder requiring pain management. They were of average weight, not over-weight. They were treated with amitriptyline that is a known therapeutic agent for mild to moderate fibromyalgia. This tricyclic antidepressant is also known for causing dry mouth, blurry vision and constipation.

[2] = tested on: lazy bowel and age-related constipation; assay: Case Example 3: cetilistat for constipation in person (non-opiate medications, dehydration, lazy bowel); type: in vivo, human; details: cetilistat 60 mg twice daily
Text: Person living in a nursing home with mild dementia complained of painful bowel movements causing an anal fissure with bleeding in their rectum. The cause of their constipation was deemed to be due to a combination of non-opiate medications, dehydration, and a lazy bowel. The patient also complained of abdominal distention and some intermittent abdominal discomfort. The patient was not overweight. […] They had abdominal pain with conventional bowel stimulants. […] The cetilistat resolved the constipation in an acute case and allowed for long-term recovery from a constipation-related complication. Further, it was effective in the treatment of lazy bowel and age-related constipation.

[3] = tested on: constipation related to menstrual cycle; assay: Case Example 6: cetilistat for constipation related to menstrual cycle; type: in vivo, human; details: cetilistat 60 mg oral once a day with food, as needed
Text: This is a case of a person who complained of recurring constipation related to their menstrual cycle. They noticed that a few days before the onset of their menstrual cycle and for the week of their menstrual cycle they develop constipation that aggravates their bloating and abdominal pain. They are not overweight. They have tried over-the-counter laxatives and tried some standard prescription laxatives that caused them to feel more bloated. […] Their doctor gave them a prescription of cetilistat (one 60 mg oral pill once a day with food) to be taken one to three days before the onset of their menstruation. In the fourth week of their period, they noticed normalization of their bowel movement and required to take the cetilistat only as needed. Often they only need to take it three times during their menstrual cycle. […] Typically, they required the cetilistat 3-7 days per cycle. […] Further, the cetilistat may be used as needed as a medication for constipation.

[4] = tested on: paralytic bowel, chronic constipation; assay: Case Example 5: orlistat for paralytic bowel after spinal cord transection; type: in vivo, human; details: orlistat 120 mg three times a day with food
Text: A person of average weight (not overweight) suffered a thoracic spinal injury with transection of the spinal cord resulting in complete paralysis below the third thoracic vertebrae. They went on to develop full paralysis of their muscles below T-3 including the skeletal muscles and smooth muscles of the gut. They developed a paralytic bowel contributing to chronic constipation with overflow and diarrhea. They required regular manual disempaction and Fleet enemas to manage their chronic constipation. The patient was given orlistat (120 mg one pill three times a day with food) by their doctor.

[5] = tested on: chronic constipation after bowel resection/colostomy; assay: Case Example 7: orlistat for constipation after partial bowel resection with colostomy; type: in vivo, human
Text: person suffering from bowel cancer was given a partial bowel resection with a colostomy and bag. They complained that since their bowel surgery they suffered chronic constipation and hard stools. […] It would sometimes be so hard it could injure and cause bleeding to the ostomy site.

[6] = tested on: constipation related to dehydration, post-gastroenteritis; assay: Case Example 4: orlistat for constipation related to post-infection and dehydration; type: in vivo, human
Description: A person travelled to Mexico and while there developed acute gastroenteritis. The patient was of average weight (not overweight). They began experiencing vomiting and diarrhea while there. They became dehydrated and eventually was transferred to their home in Canada. The virus had cleared one day after arriving back in Canada. They began eating and drinking but had developed constipation related to post-infection and dehydration. They were given orlistat (120 mg orally once daily with food) by their doctor for one week and this resolved their constipation within 24 hours. […] The improvement was such that after seven days that when they stopped the medication (orlistat), they were able to return to their normal diet.

[7] = tested on: opiate-related constipation
[8] = tested on: constipation related to deconditioning/bedridden; assay: Case Example 8: orlistat for constipation related to being bedridden; type: in vivo, human
Description: His stools and bowel function gradually became more regular allowing for a reduction of dose of the orlistat (to one 120 mg oral pill twice per day with food) as maintenance.

[9] = tested on: irritable bowel syndrome and heartburn; assay: Case Example 11: orlistat in person with irritable bowel syndrome and heartburn; type: in vivo, human; details: orlistat 120 mg, one per day on average
Text: This example relates to a person with a 20 year history of irritable bowel syndrome and heartburn. The person reported chronic abdominal pain with bloating, occasional constipation or diarrhea, and epigastric discomfort for over 20 years. They had four colonoscopies over that period of time, and 2 endoscopies of the stomach. […] They also had ultrasounds of the abdomen and pelvis which were normal. They had 2 chest x-rays and an MRI of the abdomen, each of which were normal. They were taking Losec™ for their heartburn which was controlled. They were also taking low dose Atenolol™ for their blood pressure as they had developed some minor hypertension. They were otherwise well. […] There were no masses, rebound or rigidity. There were no organs that were tender or enlarged. They complained of persistent heartburn despite being on Losec™ and abdominal pain. They were treated with orlistat (120 mg, twice a day each with a meal to be reduced or increased as required up to three per day). They reported that they only required one per day on average and occasionally a second tablet. […] They became more flexible in their abdomen and lower back. They were more comfortable in their walking. Thus, orlistat was useful to treat IBD.

[10] = tested on: fibromyalgia, irritable bowel syndrome, chronic abdominal pain; assay: Case Example 9: orlistat in fibromyalgia patient with irritable bowel syndrome; type: in vivo, human
Text: This case involves a person with a 15 year history of fibromyalgia. The person reported chronic pain involving the neck, lower back, migraine headaches, abdominal bloating, and constipation with occasional diarrhea. They had been diagnosed with fibromyalgia about 10 years prior, and had chronic abdominal pain, bloating and a formal diagnosis of irritable bowel syndrome. […] Serology, abdominal x-rays, ultrasound of the abdomen and pelvis, were normal. […] There were no masses or any signs of acute surgical abdomen. They were taking Lyrica™ 75 mg twice a day, Flexeril™ 10 mg twice a day as needed, Percocet™ 2 twice a day as needed, and Celebrex™ 200 mg once a day. They were given orlistat (120 mg, twice a day as needed to take with food), and they noted that their constipation resolved, their bloating resolved, their occasional diarrhea resolved, and their abdominal pain resolved.

[11] = tested on: irritable bowel syndrome, chronic abdominal pain; assay: Case Example 10: orlistat in person with irritable bowel syndrome; type: in vivo, human; details: over 4 to 6 weeks
Text: This case involves a non-overweight person with a history of irritable bowel syndrome. The person reported chronic abdominal pain and bloating, minor occasional constipation, minor occasional diarrhea, and lower back pain for the past five years. They were otherwise well. They had 2 colonoscopies, and an ultrasound of the abdomen and pelvis, all of which were normal. They were also taking an oral dose of B12. They were on other medications as well. […] There was no rebound or rigidity. They had no enlargement of any organs. They had tenderness globally around their abdomen, tightness of the iliopsoas bilaterally and oblique muscles. Their bowels were tender, and they were chronically uncomfortable and in pain. They were treated with orlistat (120 mg, once or twice a day as needed with food). […] They felt generally better, and was able to stop taking vitamin B12 because the absorption of […] B12 improved with their improved bowel function. Thus, orlistat was useful to treat IBD.

[12] = orlistat 120 mg twice a day as needed with food
[13] = orlistat 120 mg once or twice a day

## CCCCCCCCCCCCCCCCOc1nc2ccc(C)cc2c(=O)o1 [cetilistat]
[1]; cetilistat 60 mg once per day, one year
  side effects reported: no major side effects
[1]; cetilistat 60 mg orally once per day with food, patient on amitriptyline
  time to bowel movement: ≤ 24 h
[1]; cetilistat one pill per day
  bowel movements on continued daily treatment: regular bowel movements daily
[1]; one year
  outcome after a year of amitriptyline and cetilistat: good success with treatment of fibromyalgia and daily bowel movements
[2]
  abdominal bloating and abdominal pain: resolved
  bowel movement regularity: regular bowel movements daily
  quality of the bowel movement: painless and soft
[2]; over two weeks
  anal fissure and rectal bleeding: the anal fissure had healed and the bleeding had stopped
[3]
  relief of constipation on days of use: good relief of their constipation with regular, soft bowel movements

## CCCCCCCCCCC[C@@H](C[C@@H]1OC(=O)[C@H]1CCCCCC)OC(=O)[C@H](CC(C)C)NC=O [orlistat]
[4]
  bowel formation: long-term improvement in bowel formation
  bowel movements: soft and allowing for more regular, daily movements
  need for enemas and manual disempaction: significant reduction of therapeutic enemas and manual disempaction
[5]; orlistat 120 mg once daily
  abdominal pain: no longer had abdominal pain
  bloating: greatly improved
  stool consistency: softened their stool
[5]; orlistat 120 mg orally once daily with food
  average bowel movement frequency: once a day
[6]; after stopping orlistat at seven days
  bowel movements after cessation: continue to be normal
[6]; orlistat 120 mg once daily
  bowel movements on treatment: normal and regular
[6]; orlistat 120 mg orally once daily with food for one week
  time to resolution of constipation: ≤ 24 h
[7]; orlistat 120 mg BID orally with food, patient on MS Contin 60 mg BID
  time to noticed improvement of constipation: ≤ 24 h
[7]; orlistat 120 mg BID orally with food, within one week
  bowel movements within one week: daily bowel movements
[7]; orlistat 120 mg BID, one year
  bowel movements over one year of treatment: good well-formed bowel movements most days
  side effects reported: no major side effects
[8]; orlistat 120 mg once a day increased to three times per day with food, then twice per day as maintenance
  stool and bowel movements: softening of their stool, and the formation of regular bowel movements daily
[8]; orlistat, maintenance 120 mg twice per day
  need for Fleet enemas and disempaction: cessation of the Fleet enemas and the disempaction
[9]
  bloating: great improvement of their bloating
[9]; over 4 to 6 weeks
  abdominal pain and heartburn: great improvement of their abdominal pain and heartburn
[10]; combined medication for over two years
  long-term outcome: sustained good results
[10]; [12]
  abdominal pain: resolved
  bloating: resolved
  occasional diarrhea: resolved
  overall fibromyalgia: improvement in their overall fibromyalgia
[10]; orlistat 120 mg twice a day as needed with food, with Lyrica, Flexeril, Percocet, Celebrex
  constipation: resolved
[11]; orlistat 120 mg once or twice a day as needed with food
  bloating: reduced bloating
[11]; [13]
  abdominal pain: resolution of their abdominal pain
  diarrhea: no episodes of diarrhea
  muscles of abdomen and lower back: relaxation of the muscles of their abdomen and lower back
  straining with bowel movements: less straining with bowel movements
